Patent US11207321B2, “Methods and medical uses” (Institute of Cancer Research: Royal Cancer Hospital (The), priority 2017, dated 2021)

System: palbociclib-resistant breast cancer cell lines (wild type and LTED)
Assay: Proliferation assays with MPS1 inhibitors in panel of palbociclib-resistant breast cancer cell lines
Assay type: cell-based
Conditions: addition of CCT289346 to palbociclib
Protocol: Wt cells were stripped of E2 for 72 hrs prior to experiment. After 24 hrs cells were treated with escalating doses of MPS1 inhibitors±palbocliclib. Media was replaced after 3 days and cell viability was assessed after 6 days using the CellTitre-Glo® Luminescent Cell Viability Assay (Promega) according to manufacturer's instructions.

With `CCOc1cc(-c2nncn2C)ccc1Nc1ncc2cc(C)nc(NCC(C)(C)C)c2n1` [CCT289346, N2-(2-ethoxy-4-(4-methyl-4H-1,2,4-triazol-3-yl)phenyl)-6-methyl-N8-neopentylpyrido[3,4-d]pyrimidine-2,8-diamine] the “effect of combination with palbociclib” value was “synergistic/additive effect”.
